Measured values published in the NIST ThermoML archive (doi:10.1016/j.fluid.2010.01.027).

Details: for mass density: Vibrating tube method

FC(F)(F)C(F)(F)C(F)(F)C(F)(F)C(F)(F)C(F)(F)C(F)(F)C(F)(F)F [octadecafluorooctane]
101.33 kPa, Liquid
Details | mass density [kg/m3]
278.15 K | 1810
288.15 K | 1786.7
298.15 K | 1760.6
308.15 K | 1735
318.15 K | 1708.6
328.15 K | 1681.6
338.15 K | 1656.4

101.33 kPa, Liquid, sound analyzer
Details | speed of sound [m/s]
278.15 K | 640.32
288.15 K | 610.05
298.15 K | 581.94
308.15 K | 552.33
318.15 K | 524.1
328.15 K | 508.43
338.15 K | 479.24

FC(F)(F)C(F)(F)C(F)(F)C(F)(F)F [decafluorobutane]
speed of sound [m/s], Gas, sonar gas analyzer
Details | 10 kPa | 20 kPa | 30 kPa | 50 kPa | 70 kPa | 100 kPa | 150 kPa | 200 kPa | 250 kPa | 300 kPa
248.7 K | 95.1 | 94.56 | 93.98 | – | – | – | – | – | – | –
257.7 K | 96.57 | 96.22 | 95.7 | 94.78 | – | – | – | – | – | –
271.3 K | 99.26 | 98.71 | 98.33 | 97.39 | 96.39 | 94.79 | – | – | – | –
281.5 K | 101.05 | 100.64 | 100.23 | 99.38 | 98.4 | 97.04 | 95.08 | – | – | –
293.1 K | 103.02 | 102.7 | 102.37 | 101.71 | 100.86 | 99.66 | 97.68 | 95.63 | – | –
303.1 K | 104.78 | 104.57 | 104.25 | 103.35 | 103.06 | 103.05 | 99.91 | 98.41 | 96.5 | 94.89

FC(F)(F)C(F)(F)C(F)(F)C(F)(F)C(F)(F)C(F)(F)F [perfluorohexane]
101.33 kPa, Liquid
Details | mass density [kg/m3]
278.15 K | 1739.8
288.15 K | 1712.7
298.15 K | 1682.8
308.15 K | 1651.9

101.33 kPa, Liquid, sound analyzer
Details | speed of sound [m/s]
278.15 K | 571.89
288.15 K | 540.31
298.15 K | 510.7

FC(F)(F)C(F)(F)C(F)(F)C(F)(F)C(F)(F)C(F)(F)C(F)(F)F [hexadecafluoroheptane]
101.33 kPa, Liquid
Details | mass density [kg/m3]
278.15 K | 1769.3
288.15 K | 1751
298.15 K | 1728.4
308.15 K | 1700.8
318.15 K | 1672.7
328.15 K | 1641.9
333.15 K | 1629.4

101.33 kPa, Liquid, sound analyzer
Details | speed of sound [m/s]
278.15 K | 608.3
288.15 K | 578.42
298.15 K | 548.73
308.15 K | 517.47
318.15 K | 500.56
328.15 K | 470.6
333.15 K | 457.24

FC(F)(F)C(F)(F)C(F)(F)F [octafluoropropane]
speed of sound [m/s], Gas, sonar gas analyzer
Details | 248.2 K | 259.8 K | 270.2 K | 272.6 K | 283.2 K | 296.1 K | 303.9 K
10 kPa | 107.9 | – | 112.31 | – | – | – | 119.13
20 kPa | 107.6 | 110 | 111.99 | – | 114.63 | – | 118.98
30 kPa | 107.25 | 109.59 | 111.77 | – | 114.12 | – | 118.79
50 kPa | 106.56 | 108.88 | 111.27 | – | 113.84 | 116.81 | 118.42
70 kPa | 105.77 | 108.23 | 110.9 | – | 113.1 | 116.31 | 118.04
100 kPa | 104.62 | 107.27 | – | 110.29 | 112.46 | 115.55 | 117.43
150 kPa | 102.76 | 105.51 | – | 108.59 | 111.28 | 114.42 | 116.26
200 kPa | – | 103.72 | – | 106.9 | 109.88 | 113.23 | 115.36
250 kPa | – | 101.83 | – | 105.22 | 108.56 | 111.94 | 114.31
300 kPa | – | – | – | 103.59 | 107.1 | 110.7 | 113.14
350 kPa | – | – | – | 101.9 | 105.61 | 109.43 | 112
400 kPa | – | – | – | 100.27 | 103.99 | 108.12 | 110.63
